Data reported in ChEMBL document CHEMBL4477199, “Design and synthesis of novel bicalutamide and enzalutamide derivatives as antiproliferative agents for the treatment of prostate cancer” (Eur J Med Chem, 2016).

Legend:
VCaP = assay: Antiproliferative activity against human VCaP cells after 96 hrs by propidium iodide staining based fluorescence 2D monolayer assay; assay type: functional, cell-based
[1] = Half life in human liver microsomes at 3 uM preincubated with compound followed by NADPH addition by LC-MS/MS analysis
[2] = 33000 µM
Description: Solubility in 100% DMSO at 33 mM at -20 degC

CWR22R = assay: Antiproliferative activity against human 22Rv1 cells after 96 hrs by propidium iodide staining based fluorescence 2D monolayer assay; assay type: functional, cell-based; settings: 22Rv1, 96 h
[3] = target: T1, Androgen receptor (Rattus norvegicus) (UniProt P15207); assay: (§1) Antagonist activity at rat androgen receptor fused with DNA-binding domain of GAL4 expressed in AR-UAS-bla GripTite 293 cells assessed as inhibition of R1881-induced receptor activation preincubated for 30 mins followed by R1881 addition measured after 16 to 24 hrs by betalactamase reporter gene assay; assay type: cell-based
T1 sequence (whole entry): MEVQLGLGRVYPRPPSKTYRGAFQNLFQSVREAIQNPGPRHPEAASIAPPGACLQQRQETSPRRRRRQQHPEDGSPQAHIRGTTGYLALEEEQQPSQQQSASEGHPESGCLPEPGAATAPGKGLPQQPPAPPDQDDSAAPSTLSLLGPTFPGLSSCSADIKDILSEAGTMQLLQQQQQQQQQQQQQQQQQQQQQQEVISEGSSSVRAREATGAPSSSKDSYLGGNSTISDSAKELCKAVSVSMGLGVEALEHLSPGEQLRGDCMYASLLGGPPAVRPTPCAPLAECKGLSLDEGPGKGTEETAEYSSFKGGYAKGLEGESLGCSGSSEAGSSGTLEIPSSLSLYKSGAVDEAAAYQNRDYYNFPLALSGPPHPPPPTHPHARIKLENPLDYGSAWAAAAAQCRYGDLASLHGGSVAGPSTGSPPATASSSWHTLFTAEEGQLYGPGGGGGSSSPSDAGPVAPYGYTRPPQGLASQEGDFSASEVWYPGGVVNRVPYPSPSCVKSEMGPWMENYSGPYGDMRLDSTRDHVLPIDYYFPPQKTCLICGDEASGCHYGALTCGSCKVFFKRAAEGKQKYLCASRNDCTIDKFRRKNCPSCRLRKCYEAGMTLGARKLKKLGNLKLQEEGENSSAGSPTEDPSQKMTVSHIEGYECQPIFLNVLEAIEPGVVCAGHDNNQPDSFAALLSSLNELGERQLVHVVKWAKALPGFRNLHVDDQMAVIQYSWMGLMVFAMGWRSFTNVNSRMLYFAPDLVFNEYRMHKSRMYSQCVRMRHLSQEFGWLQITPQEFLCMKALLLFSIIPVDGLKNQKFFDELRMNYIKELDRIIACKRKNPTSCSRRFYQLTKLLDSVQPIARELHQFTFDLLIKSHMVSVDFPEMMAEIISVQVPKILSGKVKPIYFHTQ

Androgen receptor = target: T2, Androgen receptor (Rattus norvegicus, UniProt P15207); assay: as §1; assay type: cell-based
T2 sequence (P15207 whole entry): T1 sequence (whole entry)

[4] = Apparent permeability from apical to basolateral side in human Caco2 cells at 10 uM incubated for 120 mins by LC-MS/MS analysis; settings: Caco-2
DU-145 = assay: Antiproliferative activity against human DU145 cells after 96 hrs by propidium iodide staining based fluorescence 2D monolayer assay; assay type: functional, cell-based; settings: DU-145, 96 h
[5] = 96 h
Description: Solubility in RPMI1640 culture medium at <30 uM incubated for 4 days by microscopic analysis

[6] = Apparent permeability from basolateral to apical side in human Caco2 cells at 10 uM incubated for 120 mins by LC-MS/MS analysis; settings: Caco-2
HepG2 [7] = assay: Cytotoxicity against human HepG2 cells assessed as reduction in cell viability after 72 hrs by MTT assay; assay type: functional, cell-based; settings: HepG2, 72 h; for minimal effective concentration: read-out: MEC
in vitro = settings: human
HepG2 [8] = assay: Cytotoxicity against human HepG2 cells assessed as reduction in cell viability at 100 uM after 72 hrs by MTT assay relative to control; assay type: functional
LNCaP = assay: Antiproliferative activity against human LNCAP cells after 96 hrs by propidium iodide staining based fluorescence 2D monolayer assay; assay type: functional, cell-based
[9] = Efflux ratio of apparent permeability from basolateral to apical side over apical to basolateral side in human Caco2 cells at 10 uM incubated for 120 mins by LC-MS/MS analysis; settings: Caco-2
[10] = Metabolic stability in human liver microsomes at 3 uM preincubated with compound followed by NADPH addition measured after 5 to 45 mins by LC-MS/MS analysis; assay type: ADME, Microsome

SMILES | IC50 (VCaP) | half-life at 3 µM ([1]; microsomes) | solubility [2] | IC50 (CWR22R) | inhibition [3] | IC50 (Androgen receptor) | Papp A→B at 2 h, 10 µM [4] | IC50 (DU-145) | solubility [5] | Papp B→A at 2 h, 10 µM [6] | AC50 (HepG2 [7]) | minimal effective concentration (HepG2 [7]) | microsomal CLint at 3 µM (in vitro; microsomes) | cell viability reduction (HepG2 [8]) | IC50 (LNCaP) | efflux ratio at 2 h, 10 µM [9] | Stability [10] | half-life at 3 µM ([1]; liver microsomes) | microsomal CLint at 3 µM (in vitro; liver microsomes)
CC(O)(CSc1ccccc1C(F)(F)F)C(=O)Nc1ccc([N+](=O)[O-])c(C(F)(F)F)c1 (centres undefined) | 4.45 µM | 3.39 min | Soluble | 4.6 µM | Dose-dependent effect | 0.28 µM | 3.44 ×10⁻⁶ cm/s | 7.57 µM | Soluble | 2.9 ×10⁻⁶ cm/s | 2.73 µM | 1.71 µM | 409 µL/min/mg | 98% | 4.78 µM | 0.843 | – | – | –
CC(O)(COc1ccc(C(F)(F)F)cc1)C(=O)Nc1ccc(C#N)c(C(F)(F)F)c1 (centres undefined) | 9.65 µM | – | Soluble | 6.91 µM | – | – | 5.09 ×10⁻⁶ cm/s | 16.3 µM | Soluble | 4.8 ×10⁻⁶ cm/s | 23.9 µM | 11.3 µM | – | – | 6.45 µM | 0.943 | Stable | – | –
C[C@](O)(COc1ccc(C#N)cc1)C(=O)Nc1ccc(C#N)c(C(F)(F)F)c1 [ENOBOSARM] | 24.5 µM | – | – | 24.8 µM | – | 0.0364 µM | 31.5 ×10⁻⁶ cm/s | 44.6 µM | – | 26.7 ×10⁻⁶ cm/s | 32.8 µM | 21.8 µM | – | 79% | – | 0.848 | Stable | – | –
CC(O)(CSc1cccc(C(F)(F)F)c1)C(=O)Nc1ccc(C#N)c(C(F)(F)F)c1 (centres undefined) | 9.23 µM | 5.97 min | Soluble | 5.56 µM | – | – | 3.92 ×10⁻⁶ cm/s | 10.6 µM | Soluble | 4.73 ×10⁻⁶ cm/s | 36.6 µM | 18.4 µM | 232 µL/min/mg | – | 5.03 µM | 1.21 | – | – | –
CC(O)(CSc1cccc(C(F)(F)F)c1)C(=O)Nc1ccc([N+](=O)[O-])c(C(F)(F)F)c1 (centres undefined) | 8.64 µM | – | Soluble | 5.07 µM | Dose-dependent effect | 0.625 µM | 5 ×10⁻⁶ cm/s | 8.73 µM | Soluble | 4.27 ×10⁻⁶ cm/s | 26.1 µM | 13.2 µM | – | – | 6.44 µM | 0.853 | – | 6.87 min | 202 µL/min/mg
CC(O)(CSc1ccccc1C(F)(F)F)C(=O)Nc1ccc(C#N)c(C(F)(F)F)c1 (centres undefined) | 7.51 µM | – | – | 5.06 µM | Dose-dependent effect | 0.425 µM | – | 7.73 µM | – | – | 25.8 µM | 14.7 µM | – | – | 4.91 µM | – | – | 3.66 min | 379 µL/min/mg
C[C@](O)(CSc1cccc(C(F)(F)F)c1)C(=O)Nc1ccc(C#N)c(C(F)(F)F)c1 | 8.91 µM | 4.59 min | Soluble | 13.1 µM | – | – | 6.84 ×10⁻⁶ cm/s | 19.4 µM | Soluble | 12.2 ×10⁻⁶ cm/s | 34.6 µM | 26.6 µM | 302 µL/min/mg | – | 14.3 µM | 1.78 | – | – | –
CC(O)(CS(=O)(=O)c1ccccc1C(F)(F)F)C(=O)Nc1ccc([N+](=O)[O-])c(C(F)(F)F)c1 (centres undefined) | 27.6 µM | – | Soluble | 18.6 µM | Dose-dependent effect | 0.811 µM | 13.3 ×10⁻⁶ cm/s | 37.5 µM | Soluble | 17.2 ×10⁻⁶ cm/s | 32.6 µM | 22.7 µM | – | – | 25.7 µM | 1.29 | Stable | – | –
